According to patent publication US10209240B2, “Predicting human developmental toxicity of pharmaceuticals using human stem-like cells and metabolomic ratios” (STEMINA BIOMARKER DISCOVERY, INC., priority 2012, dated 2019):
Where two headings read alike, the source gives them in different places. Marks after values point to notes of the source that are not given here.

Tests used:
Rodent = settings: cited from earlier work; for Rodent in vivo test results: Embryotoxic: embryotoxic effect in the absence of teratogenic effects and maternal toxicity
rat whole embryo = settings: cited from earlier work
WA09 hES cells [1] = experiment: Phase 2 targeted biomarker assay, ornithine/cystine ratio, 9-point dose response
Description: Undifferentiated hES Cell Line Maintenance (Phases 1 and 2). WA09 hES cells were obtained from the WiCell Research Institute (Madison, Wis.) and were maintained in feeder free conditions using mTeSR1 media (StemCell Technologies, Inc., Vancouver, BC, Canada) on hESC-qualified Matrigel (BD Biosciences, San Jose, Calif.) coated 6-well plates. To maintain the undifferentiated stem cell population, differentiated colonies were removed daily through aspiration and media was replaced. Additionally, the hES cells were only used in experiments up to passage 40 and were karyotyped approximately every 10 passages to minimize and monitor the potential for genetic instability. hES cells were passaged at 90-95% confluency (approximately every 7 days) using Versene (Life Technologies, Grand Island, N.Y.). Cell cultures were maintained at 37° C. under 5% CO2.
96-well hES Cell Plating (Phases 1 and 2). All experimental treatments were carried out in 96-well plates. To minimize plating variability and increase reproducibility, hES cells were plated as a single cell suspension and maintained in an undifferentiated state during compound exposure. Prior to plating in the 96-well plates, hES cells were removed from a 6-well plate using TrypLE (Life Technologies). The cells were washed with DMEM/F12 (Life Technologies) and resuspended in mTeSR1 containing 10 μM Y27632 Rho-associated kinase (ROCK) inhibitor (Merck KGaA/Calbiochem, Darmstadt, Germany). The ROCK inhibitor is added to the plating media to increase plating efficiency by decreasing dissociation-induced apoptosis. The inner 60 wells of hESC-qualified Matrigel coated 96-well plates were seeded at a density of 100,000 cells per well. The outer wells of the plate contained an equal volume media to minimize differences in humidity across the plate. Compound exposure began 24 hours after plating.
(§1) Phase 2 hES Cell Compound Exposure. […] The standard compound exposure levels used for most compounds were nine, 3-fold dilutions ranging from 0.04 μM-300 μM (FIG. 1B). […] The stock solution was diluted 1:1000 in mTeSR1 media and subsequent dilutions were performed in mTeSR1 containing 0.1% DMSO such that the final concentration of DMSO was 0.1% in all treatments. hES cells were treated for 72 hours and spent media from the last 24-hour treatment period was collected and added to acetonitrile containing ^13C6 labeled arginine (Cambridge Isotope Laboratories, Andover, Md.) as described under Phase 1. Spent media samples were stored at −80° C. until prepared for LC-HRMS analysis. Cell viability was assessed using the CellTiter-Fluor Cell Viability Assay. A quality control step was included with criteria that the CV of the measured viability RFU of the DMSO control cells could not exceed 10% for a plate to undergo LC-HRMS analysis. A dose response curve was fit to the reference treatment (0.1% DMSO treated control cells) normalized data (Viability RFUTrt X/Viability RFUDMSO) using a four-parameter log-logistic model with the R package “drc” (Ritz and Streibig, 2005, J Statistical Software; 12:1-22).
Sample Preparation (Phases 1 and 2). High molecular weight constituents (>10 KDa) of the spent media samples were removed using a Millipore Multiscreen Ultracel-10 filter plate (EMD Millipore, Billerica, Mass.). Prior to sample filtration, the filter plate was washed with 0.1% NaOH to remove a known contaminant polymer. The plate was then rinsed twice with HPLC-grade water to remove residual polymers and NaOH. Spent media samples were added to the washed filter plate. In Phase 1, samples were spiked with ^13C6 labeled arginine. Samples were centrifuged at 2,000×g at 4° C. for 200 minutes. The filtrate was collected and concentrated overnight in a Savant High Capacity Speedvac Plus Concentrator.

WA09 hES cells [2] = system: WA09 hES cells
Method: Phase I hES Cell Compound Exposure. hES cells were treated with a test compound at a single concentration equivalent to the compound's published therapeutic Cmax. […] This was done to ensure that enough cells were present at the time of sample collection to provide a signal for LC-HRMS analysis. For test compound exposure, all compound stock solutions, with the exception of valproic acid, were made with DMSO (Sigma-Aldrich). […] Each 96-well plate included media controls with and without test compound, 0.1% DMSO solvent control cells and cells exposed to a single concentration of eight different test compounds (FIG. 1A). Media controls were included on each plate to assess the impact of test compound on the sample matrix. hES cells were exposed to the test compound for 72 hours, with media and test compound replacement every 24 hours. Cells were monitored throughout the treatment period to ensure that no differentiation was occurring. After 72 hours of treatment, the spent media from the final 24-hour treatment period was collected and added to acetonitrile (Sigma-Aldrich, final acetonitrile concentration 40%), to halt metabolic processes and precipitate proteins from solution. Individual wells from each 96-well plate were collected and analyzed as separate samples. These samples were then stored at −80° C. until prepared for LC-HRMS analysis. Cell viability was assessed using the CellTiter-Fluor Cell Viability Assay as per the manufacturer's instructions (Promega, Madison, Wis.). Quality control parameters were set such that if the coefficient of variation (CV) for the viability relative fluorescent units (RFU) of the 6 cellular samples in a treatment exceeded 10% and no outliers were identified using the Grubb's test (see the worldwide web at graphpad.com/quickcalcs/Grubbs1.cfm), analysis was halted for that compound and the cell culture experiment was repeated. If outliers were present, the outlier sample was removed from analysis. If the CV for the DMSO control cell samples on a plate were outside of the quality control parameters, the entire plate was repeated. hES cell exposure to each of the 23 compounds was replicated a total of nine times.
as §1
Phase 2 Prediction of Developmental Toxicity Potential. […] FIG. 2 illustrates how the assay is applied in this situation. A test compound is considered to be teratogenic at the exposure level where the o/c ratio exceeds the teratogenicity threshold (red box, FIG. 2).

[3] = summarized from TERIS and Briggs et al. 2011, cited from earlier work; for Preclinical in vivo developmental effects: application set compounds
[4] = system: mouse embryonic stem cell; settings: cited from earlier work
zebrafish = settings: training and test set; weak/moderate and strong teratogens both labeled teratogen; cited from earlier work
[5] = cited from earlier work
Humans = settings: cited from earlier work; for Humans (known human developmental toxicity): training and test set; for Known Effect: validation and test set treatments of Example 2
Rabbit = settings: cited from earlier work
hES cells [6] = experiment: devTOX computational model predictions (Version 2.0, Version 2.1) from hES cell metabolomics; type: cell-based, human; settings: single dose per treatment (Dose column)
Description: The selection process weighted the predictive capacity of a feature, overall intensity, and peak shape to identify very well behaved features/metabolites that could be measured by targeted LC-MS or even by other detection systems.
(§2) This simplified model is based on a ratio of the reference treatment (DMSO) normalized values of ADMA and cystine.

hES cells [7] = experiment: ADMA/cystine ratio simplified predictive model in hES cell spent media; type: cell-based, human; settings: single dose per treatment; ratios less than 0.9 indicate teratogenicity
Description: as §2
The X-axis is the reference normalized ratio of ADMA/Cystine. The y-axis is the training set of pharmaceuticals. Grey color with triangle glyphs represents teratogens and black color with circle glyphs represents non-teratogens. Each glyph point represents the media value of an independent experimental block (6 reps per block). The crosshair glyphs mark the sample medians. In FIG. 9, grey vertical line is threshold of teratogenicity, grey horizontal lines are the median absolute deviations, and black vertical line designates 1.0. The arrows at the bottom indicate the values used for differentiation of teratogens and nonteratogens, utilizing a cut off of 0.9 (grey line).

[8] = training and test set, weak/moderate and strong teratogens both labeled teratogen
[9] = test set, therapeutic peak plasma in vivo concentration, human
[10] = application set, made using the therapeutic Cmax when available
[11] = application set, peak plasma concentration in humans
[12] = training set, therapeutic peak plasma in vivo concentration, human

O/C Ratio Prediction (WA09 hES cells [1]) | SMILES | Rodent prediction (Rodent; training and test set) | WEC prediction (rat whole embryo; [8]) | Targeted Biomarker Assay prediction (WA09 hES cells [1]) | Teratogenicity Potential (μM) O/C Ratio (WA09 hES cells [1]; human, 72 h) [µM] | Viability Prediction (WA09 hES cells [2]) | Teratogenicity Potential (μM) Cell Viability (WA09 hES cells [2]; human, 72 h) [µM] | Preclinical in vivo and known human developmental effects ([3]; test set compounds) | ZET prediction (zebrafish) | Cmax [5, 9] [µM] | Humans (known human developmental toxicity) (Humans) | Rodent prediction (Rodent; application set) | Rabbit prediction (Rabbit; application set) | WEC prediction (rat whole embryo; application set) | Preclinical in vivo developmental effects [3] | Rabbit prediction (Rabbit; training and test set) | further results
TER | CC(C)(S)[C@@H](N)C(=O)O [D-Penicillamine] | TER | NON^f | TER | <0.04 | NON | >300 | Skeletal | NON^d | 13.4 | TER | – | – | – | – | – | Classification by o/c ratio in the targeted biomarker assay (WA09 hES cells [1]): correctly classify; mEST prediction [4, 8]: NON^m
– | NC(=O)c1ccc(N)nc1 [6-Aminonicotinamide] | – | – | – | – | – | – | – | – | – | – | TER | TER | TER^d | Craniofacial | – | Rodent in vivo test results: Teratogenic (Rodent; application set, structural malformations in the absence of maternal toxicity): +^d; Teratogenicity Potential (μM) O/C Ratio (WA09 hES cells [1]; application set, interpolated concentration where o/c ratio dose response curve crosses teratogenicity threshold 0.88, 72 hours): <0.04 µM; Targeted Biomarker Assay prediction (WA09 hES cells [1]; [10]): TER; Teratogenicity Potential (μM) Cell Viability (WA09 hES cells [2]; application set, interpolated concentration where cell viability dose response curve crosses teratogenicity threshold 0.88, 72 hours): 24.5 µM; mEST prediction ([4]; application set): TER^c
– | CNCCC(Oc1ccc(C(F)(F)F)cc1)c1ccccc1 (stereo not shown) [Fluoxetine] | – | – | NON | 25.1 | – | 23 | – | – | – | – | TER | NON | NON^f,g | Embryo toxicity^c | – | Rodent in vivo test results: Embryotoxic (Rodent; application set): +; mEST prediction ([4]; application set): TER^e; Cmax [5, 11]: 0.04 µM
NON | CC(=O)Nc1ccc(O)cc1 [Acetaminophen] | NON | TER^k | NON | >300 | NON | >300 | None | NON^e | 116 | NON | – | – | – | – | – | –
– | CN(CCOc1ccc(CC2SC(=O)NC2=O)cc1)c1ccccn1 (stereo not shown) [Rosiglitazone] | – | – | – | 18.9 | – | 21.8 | – | – | – | – | TER | TER | NON^h | Embryo toxicity^c | – | Rodent in vivo test results: Embryotoxic (Rodent; application set): +; Targeted Biomarker Assay prediction (WA09 hES cells [1]; [10]): NON; Cmax [5, 11]: 1.7 µM
NON | N[C@@H](Cc1cc(I)c(Oc2cc(I)c(O)c(I)c2)c(I)c1)C(=O)O [Levothyroxine] | NON | – | NON | 43.5 | NON | >300 | – | – | – | NON | – | – | – | – | NON | Model Predictions Version 2.0 (hES cells [6]): Ter; Model Predictions Version 2.1 (hES cells [6]): Non; Model Predictions ADMA/Cystine (hES cells [7]): Non; Preclinical in vivo and known human developmental effects ([3]; training set compounds): None; Cmax [5, 12]: 0.14 µM; Known Effect (Humans): Non

SMILES | O/C Ratio Prediction (WA09 hES cells [1]) | Rodent prediction (Rodent; training and test set) | WEC prediction (rat whole embryo; [8]) | Targeted Biomarker Assay prediction (WA09 hES cells [1]) | Teratogenicity Potential (μM) O/C Ratio (WA09 hES cells [1]; human, 72 h) [µM] | Viability Prediction (WA09 hES cells [2]) | Teratogenicity Potential (μM) Cell Viability (WA09 hES cells [2]; human, 72 h) [µM] | Preclinical in vivo and known human developmental effects ([3]; test set compounds) | ZET prediction (zebrafish) | Cmax [5, 9] [µM] | Humans (known human developmental toxicity) (Humans) | Rodent prediction (Rodent; application set) | Rabbit prediction (Rabbit; application set) | WEC prediction (rat whole embryo; application set) | Preclinical in vivo developmental effects [3] | Rabbit prediction (Rabbit; training and test set) | further results
CS(=O)(=O)OCCCCOS(C)(=O)=O [Busulfan] | TER | TER | TER^j | TER | 0.6 | TER | 3 | – | – | – | TER | – | – | – | – | TER | Model Predictions Version 2.0 (hES cells [6]): Ter; Model Predictions Version 2.1 (hES cells [6]): Ter; Model Predictions ADMA/Cystine (hES cells [7]): Ter; Cytotoxicity at the Cmax exposure level (WA09 hES cells [2]; human, 72 h): greater than 30%; Preclinical in vivo and known human developmental effects ([3]; training set compounds): Craniofacial, limb, embryo; mEST prediction [4, 8]: TER^i; Cmax [5, 12]: 49.6 µM; Known Effect (Humans): Ter
S=P(N1CC1)(N1CC1)N1CC1 [ThioTEPA] | TER | TER | – | TER | 0.04 | – | – | Skeletal, embryo toxicity^c | TER^v | 7 | TER | – | – | – | – | TER | Teratogenicity Potential (μM) Cell Viability (WA09 hES cells [2]; test set, interpolated concentration where cell viability dose response curve crosses teratogenicity threshold 0.88, 72 hours): 0.5 µM; Viability Prediction (WA09 hES cells [2]; test set, teratogenicity potential scored against therapeutic Cmax): TER
